Format in all cases: functional, organism-based, Hepacivirus hominis
The subject of assay [1] is Hepatitis C virus. Nature of the assay: Antiviral activity against intrinsic HCV GT1a assessed as reduction in viral replication.
The test system of assay [2] is Hepatitis C virus. Nature of the assay: Antiviral activity against HCV GT1b assessed as reduction in viral replication.
For assay [3], the system named is Hepatitis C virus. Nature of the assay: Antiviral activity against HCV GT1b assessed as inhibition of viral replication.
Assay [4] deals with Hepatitis C virus. Nature of the assay: Antiviral activity against HCV GT1b C316Y assessed as reduction in viral replication.
Assay [5] relates to Hepatitis C virus. Nature of the assay: Antiviral activity against HCV GT1b 316N assessed as reduction in viral replication.
The subject of assay [6] is Hepatitis C virus. The assay is described as follows: Antiviral activity against intrinsic HCV GT2a assessed as reduction in viral replication.

As usually defined, the EC50 is the midpoint of the concentration-response curve. With `CC(C)N(c1cc(C#CC(C)(C)C)sc1C(=O)O)C(=O)[C@H]1CC[C@H](C)CC1`, the EC50 in assay [1] turned out to be 5.5 nM. The IC50 is the concentration that gives 50% inhibition. For the compound `COc1ccc2c(c1)C=C1Cn3c-2c(C2CCCCC2)c2ccc(cc23)C(=O)NS(=O)(=O)N(C)CCCCN(C)C1=O`, the 50% effective concentration (EC50) in assay [2] was found to be 75 nM. Besides, in assay [3], the IC50 came out at 26 nM.

Consider `O=C1N/C(=N\c2nnc(-c3ccc(Cl)cc3)s2)S/C1=C\c1c(Cl)cccc1Cl`, for which, in assay [3], the IC50 amounted to 5600 nM. Regarding `O=C1N/C(=N\c2nnc(-c3ccc(F)cc3)s2)S/C1=C\c1c(Cl)cccc1Cl`, the half-maximal inhibitory concentration (IC50) in assay [3] amounted to 19800 nM. Regarding `CNC(=O)c1c(-c2ccc(F)cc2)oc2cc(N(Cc3ccc(B(O)O)c(F)c3)S(C)(=O)=O)c(C3CC3)cc12`, the figures for the half-maximal effective concentration (EC50) in assay [2] and in assay [4] were 1.7 nM and 1.9 nM, respectively.

As to `CC(C)(C)C#Cc1cc(N(C(=O)[C@H]2CC[C@H](C)CC2)[C@H]2CC[C@H](Oc3cccnc3)CC2)c(C(=O)O)s1`, the half-maximal effective concentration (EC50) in assay [1] stood at 3.6 nM. On the same count and under the same terms, the same measure for `CC(C)(C)C#Cc1cc(N(C(=O)[C@H]2CC[C@H](C)CC2)[C@H]2CC[C@H](OC3CCOC3)CC2)c(C(=O)O)s1` (stereo partly specified): 8.1 nM; for `CC(C)(C)C#Cc1cc(N(C(=O)[C@H]2CC[C@H](C)CC2)[C@H]2CC[C@](O)(CO[C@H]3CCOC3)CC2)c(C(=O)O)s1`: 2.2 nM; for `CC1=CC[C@H](C(=O)N(c2cc(C#CC(C)(C)C)sc2C(=O)O)C(C)C)CC1`: 2.2 nM. Regarding `CNC(=O)c1c(-c2ccc(F)cc2)oc2cc(N(c3cc(Cl)c4c(c3)COB4O)S(C)(=O)=O)c(C3CC3)cc12`, the concentration giving a half-maximal response (EC50) came out at 2.5 nM in assay [2], 2.5 nM in assay [5] and 1.3 nM in assay [1].

On to `CNC(=O)c1c(-c2ccc(F)cc2)oc2cc(N(C)S(C)(=O)=O)c(-c3cccc(CNS(=O)(=O)c4cccc(OC)c4)c3)cc12`, for which the 50% effective concentration (EC50) was determined as 1 nM in assay [2] and 6 nM in assay [6].

Turning to `CNC(=O)c1c(-c2ccc(F)cc2)oc2cc(N(C)S(C)(=O)=O)c(-c3ccc(OC)c(-c4nc5c(F)cccc5o4)c3)cc12`, the values for the EC50 in assay [2] and in assay [4] were 3.1 nM and 9.2 nM, respectively. For `CNC(=O)c1c(-c2ccc(F)cc2)oc2cc(N(C)S(C)(=O)=O)c(-c3ccccc3)cc12`, the EC50 in assay [2] amounted to 120 nM. With `CNC(=O)c1c(-c2ccc(F)cc2)oc2cc(N(C)S(C)(=O)=O)c(-c3ccc(OC)cc3)cc12`, the 50% effective concentration (EC50) in assay [2] was found to be 16 nM; in assay [6], 60 nM. In the case of `CNC(=O)c1c(-c2ccc(F)cc2)oc2cc(N(CCO)S(C)(=O)=O)c(-c3ccccc3)cc12`, the EC50 in assay [2] is 62 nM. Regarding `Cn1c(-c2ncc(Br)cn2)c(C2CCCC2)c2ccc(C(=O)NC3(c4nc5ccc(/C=C/C(=O)O)cc5[nH]4)CCC3)cc21`, the EC50 in assay [2] was determined as 11 nM. Moreover, in assay [3], the concentration for half-maximal inhibition (IC50) was 50 nM. With `CNC(=O)c1c(-c2ccc(F)cc2)oc2cc(N(C)S(C)(=O)=O)c(-c3ccc4c(n3)-c3cc5c(F)cccc5n3CO4)cc12` [MK-8876], the figures for the EC50 in assay [2], in assay [4] and in assay [6] were 2.2 nM, 7.3 nM and 2.7 nM, respectively. Take `CNC(=O)c1c(-c2ccc(F)cc2)oc2cc(N(CCO)S(C)(=O)=O)c(C3CC3)cc12` [NESBUVIR]: the EC50 in assay [2] worked out at 18 nM; in assay [5], 170 nM. `CC1=CC[C@H](C(=O)N(c2cc(C#CC(C)(C)C)sc2C(=O)O)[C@H]2CC[C@](O)(CO[C@H]3CCOC3)CC2)CC1` [RADALBUVIR]: the EC50 in assay [2] stood at 6 nM; in assay [1], 2.9 nM.

(Values after ChEMBL document CHEMBL5107986, “Small molecule NS5B RdRp non-nucleoside inhibitors for the treatment of HCV infection: A medicinal chemistry perspective” (Eur J Med Chem, 2022).)
